The values below come from US12551368B2, “Bioerodible ocular drug delivery insert and therapeutic method” (EyePoint Pharmaceuticals, Inc., priority 2020, dated 2026).

For data set [1] the following is noted: cited from earlier work.
Data set [2] in a line: Intravitreal Pharmacokinetic Study of vorolanib insert (Example 5). It is filed as in vivo, Male Dutch Belted Rabbits. Here is the method:
An Intravitreal Pharmacokinetic Study was performed in Male Dutch Belted Rabbits. The objective of this study was to characterize the plasma and ocular tissue pharmacokinetics of a vorolanib insert following bilateral intravitreal injection on Day 1. Animals were evaluated up to 24 months following placement of the intravitreal insert.
The low dose group (1) received 3 inserts per eye for a total dose of 630 μg per eye. The high dose group (2) animals received 6 inserts per eye given in 2 separate injections (3 inserts per injection) for a total dose of 1,260 μg per eye.
Prior to each scheduled sacrifice point, one whole blood sample was collected from a targeted 2 animals per group via puncture of a marginal ear vein. Samples were tested for levels of vorolanib and its metabolite. Two animals per group were euthanized on day 1 at 6, 12, 24 and 48 hours, on days 7 and 14, and at 1, 2, 4, 6, 8, 16 and 24 months.

Data set [3] is described as follows: 18 month intravitreal toxicity and plasma pharmacokinetics study of the insert (Example 6). It counts as in vivo. Conditions: rabbit. As for the experimental part:
An 18 month intravitreal toxicity study for the insert was also performed in 80 Dutch Belted rabbits (40 male and 40 female). Animals were evaluated for a period of 6 and 18 months following placement of intravitreal inserts. The objective was to characterize the ocular toxicity, plasma pharmacokinetics and biodegradation of a vorolanib insert following bilateral intravitreal injection.
The tables below describe the group assignments and dose levels. For the toxicology groups, animals were sacrificed at 6 months and 18 months. For the plasma pharmacokinetic analysis, blood samples were collected at Days 1, 3, and 7 and then 1, 2, 3, 4, 5, 6, 12, 14, 16 and 18 Months
The placebo group (1) animals received two placebo inserts by injection in each eye. The low dose group (2) animals received 2 inserts in each eye. The mid dose group (3) animals received 3 inserts in each eye given in 2 separate injections. The high dose group (4) animals received 4 inserts in each eye given in 2 separate injections (2 inserts/injection). The highest dose group (5) animals received 6 inserts in each eye given in 2 separate injections (3 inserts/injection).
At each scheduled timepoint, whole blood was collected via puncture of a marginal ear vein. Samples were analyzed for clinical pathology and plasma pharmacokinetics. Animals were euthanized according to the schedules described above. […]

Data set [4] has as its system Laser-Induced Choroidal Neovascularization (CNV). Nature of the data set: Laser-Induced Choroidal Neovascularization (CNV) model, fluorescein angiography (Example 7). It counts as in vivo, Swine (Mini-pig). As for the experimental part:
Safety and efficacy of a vorolanib insert were evaluated in a Swine (Mini-pig) Model of Laser-Induced Choroidal Neovascularization (CNV). The primary objective of this study was to evaluate the long-term safety and inhibition of vascular permeability and neovascularization in a laser-induced model of choroidal neovascularization (CNV) using a vorolanib insert in swine.
On the day of lasering (Groups 1-4) animals were treated with an 810 nm diode laser delivered through an indirect ophthalmoscope. Approximately 6 single laser spots were placed between retinal veins. Both eyes underwent laser treatment according to the schedule in the table above.
On the day of intravitreal injections animals were anesthetized and the eyes were aseptically prepared. […] Animals were allowed to recover normally from the procedure. The pigs were given a topical drop of antibiotic ophthalmic solution 4-6 hours later, and then BID for 2 additional days with at least 6 hours between doses. Animals were dosed on either Day 0 immediately following laser CNV induction or 7 days prior to laser CNV induction according to the schedule in the table above.
Flourescein Angiography was done in both eyes in anesthetized animals at the timepoints as indicated in the experimental design table.

Regarding `CNC(=O)c1ccccc1Sc1ccc2c(/C=C/c3ccccn3)n[nH]c2c1` [axitinib, N-methyl-2-[3-((E)-2-pyridin-2-yl-vinyl)-1H-indazol-6-ylsulfanyl]-benzamide], the “solubility in aqueous media” value in data set [1] (over the range pH 1.1 to pH 7.8) is above 0.2 µg/mL.
For `Cc1[nH]c(/C=C2\C(=O)Nc3ccc(F)cc32)c(C)c1C(=O)N[C@H]1CCN(C(=O)N(C)C)C1` [vorolanib, (S,Z)—N-(1-(Dimethylcarbamoyl)pyrrolidin-3-yl)-5-((5-fluoro-2-oxoindolin-3-ylidene)methyl)-2,4-dimethyl-1H-pyrrole-3-carboxamide], the “dose proportionality of maximum observed concentrations in vitreous and retina/choroid” value in data set [2] (630 vs 1,260 μg per eye, rabbit) is recorded as “nearly dose-proportional”. For the same molecule, the vorolanib plasma levels entry was “low pg/mL range” in data set [2] (PK study, rabbit) and “low pg/mL range” in data set [3] (2 to 6 inserts per eye, bilateral intravitreal, toxicology study). Moreover, the “change in plasma levels” value in data set [2] (after 99 days, rabbit) is on record as “No apparent change”. In addition, the “vorolanib levels in the vitreous and the retina/choroid relative to the IC50 for VEGFR” value in data set [2] (at the time points tested, rabbit) is listed as “remained significantly above the IC50 for VEGFR”. Also, in data set [2] (inserts in rabbit eye), the “time at which steady state was reached” value was at most 105 days. In addition, the “burst period of drug release in vivo” value in data set [2] (inserts in rabbit eye, followed by steady state) came to 90 days. Besides, the solubility in water entry in data set [1] was “less than 0.1 μg/mL”. In addition, in data set [3] (intravitreal, up to 6 inserts per eye), the adverse findings result is “No adverse findings were attributed to vorolanib”.
With “aflibercept: VEGF inhibitor used as comparator, 2 mg, 50 μL/eye IVT”, the “reduction in Corrected Total Lesion Fluorescence (CTLF) value” in data set [4] (Day 7 to Day 28, Aflibercept (2 mg), 50 μL/eye IVT) is on record as “largest reduction in CTLF values”. For the same molecule, in data set [4] (IVT, swine), the “overall efficacy in the CNV model” value is on record as “normal amounts of efficacy in this model”.
